Tested on: CHGA119 primary gastric tumor xenograft
Experiment: Anti-tumor activity and host response in CHGA119 patient-derived xenograft
Details: CHGA119-tumor bearing mice, ADCs 10 mg/kg i.v. q2wk, BGJ398 10 mg/kg p.o. qd
Excerpt: In these studies, CHGA119 tumor fragments in size of 2 mm×2 mm×2 mm were implanted subcutaneously (s.c.) into female nu/nu athymic mice. […] Tumors were calipered twice a week.

SMILES: CCN1CCN(c2ccc(Nc3cc(N(C)C(=O)Nc4c(Cl)c(OC)cc(OC)c4Cl)ncn3)cc2)CC1 [BGJ398, 3-(2,6-Dichloro-3,5-dimethoxy-phenyl)-1-{6-[4-(4-ethyl-piperazin-1-yl)-phenylamino]-pyrimidin-4-yl}-1-methyl-urea]
- Host response % body weight change (mean ± SEM): −3.7 ± 3%
- Host response Mean body weight change (g ± SEM): -0.8 ± 0.7 g
- Mean tumor volume change (mm^3 ± SEM): 386 ± 169 mm^3
- Survival (survivors/total): 8/8
- Tumor response T/C (%) (after 5 weeks of treatment): 33%

From patent US9498532B2, “Antibody drug conjugates” (Novartis AG, priority 2013, dated 2016)
